Results reported in patent US12428403B2, “N-(heterocyclyl and heterocyclylalkyl)-3-benzylpyridin-2-amine derivatives as SSTR4 agonists” (Takeda Pharmaceutical Company Limited, priority 2020, dated 2025).
pEC50, pIC50: −log10 of the molar value.

Legend:
SSTR1 = SSTR1 (Homo sapiens, UniProt P30872); test: biochemical;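 also: competitive binding to membranes of CHO-K1 cells overexpressing SSTR1, incubated 60 min at room temperature, radioactivity read by scintillation counting after filtration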
Experimental: SSTR1 I-125 Somatostatin Competition Binding Assay for Selectivity Versus SSTR1
Membranes from CHO-K1 cells overexpressing SSTR1 are purchased from Perkin Elmer (catalog number ES-520-M400UA). Test compounds are suspended in DMSO and then diluted in assay buffer (25 mM HEPES pH 7.4, 10 mM MgCl2, 1 mM CaCl2, 0.5% BSA) plus 0.4 nM I-125 labeled somatostatin (Perkin Elmer catalog number NEX389). […] Then 10 μg of SSTR1 membranes in 50 μL assay buffer are added per well. The plate is incubated for 60 minutes at room temperature. […] The contents of the assay plate are transferred to filters with a TomTech harvester and washed 5 times with 20 mM HEPES, 100 mM NaCl. […] The scintillator sheets are melted to the filters using a heat block. The filters are then read in a MicroBeta scintillation counter. Binding Ki curves are generated using Activity Base for Screening Data Management and the results are reported as pIC50.

SSTR4 [1] = target: T1, SSTR4 (Homo sapiens, UniProt P31391); test: SSTR4 I-125 somatostatin competition binding assay (CHO-K1 membranes); parameters: host or cells: CHO-K1; conditions: competition with I-125 labeled somatostatin, membranes from CHO-K1 overexpressing SSTR4; read-out: SSTR4 Binding pIC50 (converted)
T1 sequence (P31391 whole entry): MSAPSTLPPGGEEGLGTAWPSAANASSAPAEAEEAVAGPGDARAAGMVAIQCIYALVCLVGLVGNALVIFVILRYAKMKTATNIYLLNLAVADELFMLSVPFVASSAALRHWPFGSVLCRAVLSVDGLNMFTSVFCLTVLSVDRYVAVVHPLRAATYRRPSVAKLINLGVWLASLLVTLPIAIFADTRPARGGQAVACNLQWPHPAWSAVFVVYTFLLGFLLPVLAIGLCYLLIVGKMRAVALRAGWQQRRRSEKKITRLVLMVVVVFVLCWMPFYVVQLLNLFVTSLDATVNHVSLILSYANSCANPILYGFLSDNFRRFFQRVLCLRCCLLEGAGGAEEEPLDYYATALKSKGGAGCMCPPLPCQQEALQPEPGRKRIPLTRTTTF
Excerpt: SSTR4I-125 Somatostatin Competition Binding Assay
Membranes from CHO-K1 cells overexpressing SSTR4 are purchased from Perkin Elmer (catalog number ES-524-M400UA). […] The scintillator sheets are melted to filters using a heat block.

SSTR4 [2] = target: T1, SSTR4; test: cell-based
Experimental: This cell-based assay measures the ability of compounds to inhibit forskolin stimulated cAMP in CHO-K1 cells overexpressing SSTR4. CHO-K1 cells overexpressing SSTR4 (CHO-SSTR4) are purchased from DiscoveRx (product code 95-0059C2). The CHO-SSTR4 cells are maintained in F12K media with 10% Fetal Bovine Serum (Hyclone), 1% Pen/Strep (Life Technologies), and 800 μg/mL G418 (Life Technologies). To perform the assay, 3000 cells are plated per well in white 384-well plate (Corning 3570) in 50 complete media and the cells are allowed to attach for 16 hours in a 37° C., 5% CO2 incubator. The next day, the culture media is removed from the cells and the cells are washed (added then removed) with Krebs Ringer Buffer (ZenBio, KRB-1000 mL). Test compounds are suspended in DMSO and diluted in stimulation buffer: Krebs Ringer Buffer plus 0.5% BSA (Roche), 300 μM IBMX (Sigma), and 350 nM forskolin (Sigma). The cells are incubated in 10 μL compound/stimulation buffer for 30 minutes at room temperature. Cellular cAMP levels are detected with a HTRF LANCE Ultra cAMP kit (Perkin Elmer, catalog number TRF0264).
The assay is performed in accordance with the manufacturer's instructions. Five μL of diluted Eu-W8044 labeled streptavidin (dilution: 1:50 in cAMP Detection Buffer) is added to each well. Then 5 μL of diluted biotin cAMP (dilution: 1:150 in cAMP Detection Buffer) is added to each well. The plates are covered and allowed to incubate for 60 minutes at room temperature on a shaker. HTRF (665 nm/615 nm) is read on a Perkin Elmer ENVISION plate reader. The pEC50 values are generated using Activity Base for Screening Data Management.
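For pEC50 in this document: CHO-K1 cells overexpressing SSTR4, reduction of forskolin-driven cAMP after 30 min compound exposure at room temperature, cAMP read by HTRF LANCE Ultra kit.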

SSTR1, sequence (P30872 whole entry): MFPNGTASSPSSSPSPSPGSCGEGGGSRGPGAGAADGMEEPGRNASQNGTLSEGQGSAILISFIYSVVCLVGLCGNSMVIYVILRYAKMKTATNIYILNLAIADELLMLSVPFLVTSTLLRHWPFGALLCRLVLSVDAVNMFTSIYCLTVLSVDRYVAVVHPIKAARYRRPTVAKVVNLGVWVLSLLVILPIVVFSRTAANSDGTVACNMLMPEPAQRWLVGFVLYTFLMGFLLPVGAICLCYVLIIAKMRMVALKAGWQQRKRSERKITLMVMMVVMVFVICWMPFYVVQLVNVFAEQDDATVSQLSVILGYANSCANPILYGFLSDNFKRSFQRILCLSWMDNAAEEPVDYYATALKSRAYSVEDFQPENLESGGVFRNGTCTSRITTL

Structure (SMILES)	pIC50 (SSTR1)	IC50 (SSTR4 [1]) [nM]	pEC50 (SSTR4 [2])
COc1cccc(Cc2nc3cccc(C)c3nc2NCCN2CCC2)c1 (single isomer, unassigned) [Example 4, N-(2-(azetidin-1-yl)ethyl)-3-(3-methoxybenzyl)-8-methylquinoxalin-2-amine]	5.81	38	7.20
C[C@H](c1ccc(F)cc1)c1nc(C(N)=O)cnc1NCCN1CCCC1 (single isomer, unassigned) [Example 21]	5.55	24.5	8.29
CNC(=O)c1cnc(NCCN2CCCC2)c([C@@H](C)c2ccc(F)cc2)n1 (single isomer, unassigned) [Example 23]	4.88	63.1	7.60
CNC(=O)c1cnc(NCCN2CCCC2)c([C@H](C)c2ccc(F)cc2)n1 (single isomer, unassigned) [Example 24]	5.29	45.7	7.73
C[C@H](c1ccc(F)cc1)c1nccnc1NCCN1CCCC1 (single isomer, unassigned) [Example 121]	5.86	39.8	8.36
C[C@H](c1ccc(F)cc1)c1nc(C(=O)N2CCCC2)cnc1NCCN1CCCC1 [Example 8, (R)-(6-(1-(4-fluorophenyl)ethyl)-5-((2-(pyrrolidin-1-yl)ethyl)amino)pyrazin-2-yl)(pyrrolidin-1-yl)methanone]	5.71	141	7.50
CO[C@H]1CCN(C(=O)c2cnc(NCCN3CCCC3)c([C@H](C)c3ccc(F)cc3)n2)C1 [Example 10, (6-((R)-1-(4-fluorophenyl)ethyl)-5-((2-(pyrrolidin-1-yl)ethyl)amino)pyrazin-2-yl)((S)-3-methoxypyrrolidin-1-yl)methanone]	5.50	380	7.57
CO[C@@H]1CCN(C(=O)c2cnc(NCCN3CCCC3)c([C@H](C)c3ccc(F)cc3)n2)C1 [Example 11, (6-((R)-1-(4-fluorophenyl)ethyl)-5-((2-(pyrrolidin-1-yl)ethyl)amino)pyrazin-2-yl)((R)-3-methoxypyrrolidin-1-yl)methanone]	5.46	214	7.54
C[C@H](c1ccc(F)cc1)c1nc(C(=O)N[C@H]2CCOC2)cnc1NCCN1CCCC1 [Example 12, 6-((R)-1-(4-fluorophenyl)ethyl)-5-((2-(pyrrolidin-1-yl)ethyl)amino)-N-((S)-tetrahydrofuran-3-yl)pyrazine-2-carboxamide]	5.25	162	7.82
C[C@H](c1ccc(F)cc1)c1nc(C(=O)N[C@@H]2CCOC2)cnc1NCCN1CCCC1 [Example 13, 6-((R)-1-(4-fluorophenyl)ethyl)-5-((2-(pyrrolidin-1-yl)ethyl)amino)-N-((R)-tetrahydrofuran-3-yl)pyrazine-2-carboxamide]	5.39	162	7.93
C[C@H](c1ccc(F)cc1)c1nc(C(=O)N(C)C2CC2)cnc1NCCN1CCCC1 [Example 17, (R)-N-cyclopropyl-6-(1-(4-fluorophenyl)ethyl)-N-methyl-5-((2-(pyrrolidin-1-yl)ethyl)amino)pyrazine-2-carboxamide]	5.10	162	7.93
C[C@H](c1ccc(F)cc1)c1nc(C(=O)NC2CCOCC2)cnc1NCCN1CCCC1 [Example 18, (R)-6-(1-(4-fluorophenyl)ethyl)-5-((2-(pyrrolidin-1-yl)ethyl)amino)-N-(tetrahydro-2H-pyran-4-yl)pyrazine-2-carboxamide]	5.05	166	7.92
CC(c1ccc(F)cc1)c1nc(C(N)=O)cnc1NCCN1CCCC1 (stereo not drawn) [Example 19, 6-(1-(4-fluorophenyl)ethyl)-5-((2-(pyrrolidin-1-yl)ethyl)amino)pyrazine-2-carboxamide]	5.24	50.1	8.27
CC(c1ccc(F)cc1)c1ncc(C(F)(F)F)nc1NCCN1CCCC1 (stereo not drawn) [Example 94, 3-(1-(4-fluorophenyl)ethyl)-N-(2-(pyrrolidin-1-yl)ethyl)-6-(trifluoromethyl)pyrazin-2-amine]			6.82
CC(c1ccc(F)cc1)c1nccnc1NCCN1CCC(F)C1 (stereo not drawn) [Example 117, 3-(1-(4-fluorophenyl)ethyl)-N-(2-(3-fluoropyrrolidin-1-yl)ethyl)pyrazin-2-amine]			6.65
Cc1cnc(-c2cnc(NCCN3CCCC3)c(C(C)c3ccc(F)cc3)n2)s1 (stereo not drawn) [Example 127, 3-(1-(4-fluorophenyl)ethyl)-5-(5-methylthiazol-2-yl)-N-(2-(pyrrolidin-1-yl)ethyl)pyrazin-2-amine]			6.65
Cc1cnc(-c2cnc(NCCN3CCCC3)c(C(C)c3ccc(F)cc3)n2)n1C (stereo not drawn) [Example 128, 5-(1,5-dimethyl-1H-imidazol-2-yl)-3-(1-(4-fluorophenyl)ethyl)-N-(2-(pyrrolidin-1-yl)ethyl)pyrazin-2-amine]			7.09

Further lines, results first:

pIC50 (SSTR1)	IC50 (SSTR4 [1]) [nM]	pEC50 (SSTR4 [2])	Structure (SMILES)
4.74	129	7.42	Cc1nc(N[C@@H]2CCN(C)C[C@H]2C)c(Cc2ccc(F)cc2)nc1C(N)=O (racemic) [Example 45, 5-((trans-1,3-dimethylpiperidin-4-yl)amino)-6-(4-fluorobenzyl)-3-methylpyrazine-2-carboxamide]
4.84	490	7.14	CNC(=O)c1nc(Cc2ccc(F)cc2)c(N[C@@H]2CCN(C)C[C@H]2C)nc1C (racemic) [Example 46, 5-((trans-1,3-dimethylpiperidin-4-yl)amino)-6-(4-fluorobenzyl)-N,3-dimethylpyrazine-2-carboxamide]
4.91	912	7.31	C[C@H](c1ccc(F)cc1)c1nc(C(N)=O)cnc1N[C@@H]1CCN(C)C1 (single isomer, unassigned) [Example 30]
4.52	209	7.37	Cc1nnc([C@H](C)c2ccc(F)cc2)c(NCCN2CCC2)n1 (single isomer, unassigned) [Example 133]
4.82	19.5	8.66	Cc1nnc([C@@H](C)c2ccc(F)cc2)c(NCCN2CCC2)n1 (single isomer, unassigned) [Example 134]
4.59	93.3	7.67	Cc1nnc([C@H](C)c2ccc(F)cc2)c(N[C@@H]2CCN(C)C2)n1 (single isomer, unassigned) [Example 141]
4.73	603	7.42	Cc1nnc([C@H](C)c2ccccc2)c(NCCN2CCC2)n1 (single isomer, unassigned) [Example 144]
4.84	25.1	8.76	Cc1nnc([C@@H](C)c2ccccc2)c(NCCN2CCC2)n1 (single isomer, unassigned) [Example 145]
5.00	91.2	7.56	Cc1nnc([C@H](C)c2ccc(F)cc2)c(N[C@H]2CCN(C)C2)n1 (single isomer, unassigned) [Example 146]
4.89	174	7.40	Cc1nnc([C@H](C)c2ccccc2)c(N[C@@H]2CCN(C)C2)n1 (single isomer, unassigned) [Example 149]
5.00	204	7.57	Cc1nnc([C@@H](C)c2ccccc2)c(N[C@H]2CCN(C)C2)n1 (single isomer, unassigned) [Example 152]
		7.44	Cc1cccc(Cc2nc(C#N)c(C)nc2N[C@@H]2CCN(C)C2)c1 [Example 97, (R)-3-methyl-6-(3-methylbenzyl)-5-((1-methylpyrrolidin-3-yl)amino)pyrazine-2-carbonitrile]
		7.11	COc1cccc(Cc2nc(C#N)c(C)nc2N[C@@H]2CCN(C)C2)c1 [Example 98, (R)-6-(3-methoxybenzyl)-3-methyl-5-((1-methylpyrrolidin-3-yl)amino)pyrazine-2-carbonitrile]
		6.97	CN(C)C(=O)c1cnc(NCCN2CCCC2)c(Cc2ccc(F)cc2)c1 [Example 99, 5-(4-fluorobenzyl)-N,N-dimethyl-6-((2-(pyrrolidin-1-yl)ethyl)amino)nicotinamide]
		7.02	NC(=O)c1cnc(NCCN2CCCC2)c(Cc2ccc(F)cc2)c1 [Example 100, 5-(4-fluorobenzyl)-6-((2-(pyrrolidin-1-yl)ethyl)amino)nicotinamide]
		6.78	CNC(=O)c1cnc(NCCN2CCCC2)c(Cc2ccc(F)cc2)c1 [Example 101]
		6.30	CN1CCCC1CNc1nccnc1Cc1ccc(F)cc1 (stereo not drawn) [Example 109, 3-(4-fluorobenzyl)-N-((1-methylpyrrolidin-2-yl)methyl)pyrazin-2-amine]
		5.69	CN1CCC1CNc1nccnc1Cc1ccc(F)cc1 (stereo not drawn) [Example 110, 3-(4-fluorobenzyl)-N-((1-methylazetidin-2-yl)methyl)pyrazin-2-amine]
		6.26	CN1CCCCC1CNc1nccnc1Cc1ccc(F)cc1 (stereo not drawn) [Example 112, 3-(4-fluorobenzyl)-N-((1-methylpiperidin-2-yl)methyl)pyrazin-2-amine]
		8.10	CCc1nnc(Cc2cccc(C)c2)c(NCCN2CCC2)n1 [Example 130, N-(2-(azetidin-1-yl)ethyl)-3-ethyl-6-(3-methylbenzyl)-1,2,4-triazin-5-amine]
		6.89	Cc1nnc(Cc2ccc(F)cc2)c(NCCN2CCC2)n1 [Example 135, N-(2-(azetidin-1-yl)ethyl)-6-(4-fluorobenzyl)-3-methyl-1,2,4-triazin-5-amine]
		6.85	Cc1nnc(Cc2ccc(F)cc2)c(NC2CCN(C)CC2)n1 [Example 137, 6-(4-fluorobenzyl)-3-methyl-N-(1-methylpiperidin-4-yl)-1,2,4-triazin-5-amine]
